Measurements taken from patent publication US4048305A, “Tripeptides, their esters and amides, and anti-ulcera activity thereof” (Dr. L. Zambeletti S.p.A., priority 1975, dated 1977).
Square brackets hold non-standard residues; d marks the D form. Peptide text beside a SMILES is read from it.

Key:
[1] = system: female rats of "Wistar" strain; assay: Gastro-protective activity, Shay method (pylorus tying) in rats; type: in vivo, rat; conditions: 100 mg/Kg in peanut oil, 18 hours after administration; for Rat (Shay test) Ulcer depth M ± es: arbitrary values 1 to 4, peanut oil controls 2.4 ± 0.5; for Rat (Shay test) No. of ulcers M ± es: ulcers in the rumen, peanut oil controls 10.7 ± 2.2
Protocol: Gastro-protective activity of the products was assayed on rats by employing the Shay method (Shay H., Komarov, S. A., Fels, S. S., Meranze, D;, Gruenstein, M. and Siplet, H:Gastroenterology, 5, 43-61, 1945).
The investigation was performed on female rats of "Wistar" strain, of the average weight of 200 g., which had been held, before experiment, in the cages for 10 days at standard ambient conditions (temperature 22° C, humidity about 50%) on a controlled diet (Altromin).
72 hours before the test the animals, distributed into individual cages, were deprived of food while leaving water "ad libitum".
At the end of this time, the animals were anaesthetized with ether and, by opening the abdomen, the tying of the pylorus was effected as well as, thereafter, the administration of the products in the dose of 100 mg/Kg dissolved into peanut oil. The suture of the abdomen was then performed and the animals were then placed again into their respective contention cages.
For each product 15 animals were used whilst another set of 15 animals, which served as control, was given peanut oil at the same volume as that of the treated ones.
After 18 hours from administration of the products, the animals were killed under chloroformic narcosis, the stomachs were removed and opened along the greter curvature and then fixed on cork supports for counting the number of ulcers present in the "rumen" and for evaluating the depth of the lesions by arbitrarily assigning values ranging from 1 to 4 according to the intensity of the lesion.

[2] = system: "Swiss" strain male mouse; assay: Acute toxicity (lethality) in mouse, oral; type: in vivo; conditions: for Mouse LD50: Swiss male mouse, fasted 15 hours, suspended in peanut oil, gastric probe
Protocol: The acute toxicity was assayed in "Swiss" strain male mouse weighing 20-24 g. which were held, before the test, in the cages for 10 days at standard ambient conditions (temperature 22° C, humidity about 50%) and kept on a controlled diet (Altromin).
Before the test, the animals were deprived of food for 15 hours, while leaving water "ad libitum".
Lethality was determined on 10 animals for each group-dose by using on the whole 60 animals for each product. For administration, the products were suspended into peanut oil and administered at the maximum volume of 0.1 ml/10 g. of body weight, by means of a gastric probe.

COC(=O)C(Cc1c[nH]cn1)NC(=O)C(Cc1ccccc1)NC(=O)C(Cc1ccccc1)NC(C)=O (mixture of isomers) [N-acetyl-dl-phenylalanyl-dl-phenylalanyl-dl-histidine methylester]
Rat (Shay test) Ulcer depth M ± es [1]: 1.7 ± 0.2
Rat (Shay test) No. of ulcers M ± es [1]: 6.7 ± 1.7
Mouse LD50 [2]: > 5000 mg/Kg/os

COC(=O)[C@H](Cc1c[nH]cn1)NC(=O)[C@@H](Cc1ccccc1)NC(=O)[C@H](Cc1ccccc1)NC(C)=O [N-acetyl-l-phenylalanyl-d-phenylalanyl-l-histidine-methylester]
Rat (Shay test) Ulcer depth M ± es [1]: 1.5 ± 0.4
Rat (Shay test) No. of ulcers M ± es [1]: 5.6 ± 1.5
Mouse LD50 [2]: > 5000 mg/Kg/os

CC(=O)N[C@@H](Cc1ccccc1)C(=O)N[C@H](Cc1ccccc1)C(=O)N[C@@H](Cc1c[nH]cn1)C(N)=O [N-acetyl-l-phenylalanyl-d-phenylalanyl-l-histidineamide] (Ac-Phe-[dF]-His-NH2)
Rat (Shay test) Ulcer depth M ± es [1]: 1.3 ± 0.2
Rat (Shay test) No. of ulcers M ± es [1]: 6.2 ± 1.6
Mouse LD50 [2]: > 5000 mg/Kg/os

CNC(=O)[C@H](Cc1c[nH]cn1)NC(=O)[C@H](Cc1ccccc1)NC(=O)[C@H](Cc1ccccc1)NC(C)=O [N-acetyl-l-phenylalanyl-l-phenylalanyl-l-histidine methylamide] (Ac-Phe-Phe-His-NHMe)
Rat (Shay test) Ulcer depth M ± es [1]: 1.4 ± 0.3
Rat (Shay test) No. of ulcers M ± es [1]: 5.8 ± 1.4
Mouse LD50 [2]: > 5000 mg/Kg/os

COC(=O)[C@H](Cc1c[nH]cn1)NC(=O)[C@H](Cc1ccccc1)NC(=O)[C@H](Cc1ccccc1)NC(C)=O [N-acetyl-l-phenylalanyl-l-phenylalanyl-l-histidine methylester]
Rat (Shay test) Ulcer depth M ± es [1]: 1.1 ± 0.3
Rat (Shay test) No. of ulcers M ± es [1]: 4.6 ± 1.1
Mouse LD50 [2]: > 5000 mg/Kg/os

CC(=O)N[C@@H](Cc1ccccc1)C(=O)N[C@@H](Cc1ccccc1)C(=O)N[C@@H](Cc1c[nH]cn1)C(=O)O [N-acetyl-l-phenylalanyl-l-phenylalanyl-l-histidine] (Ac-Phe-Phe-His-OH)
Rat (Shay test) Ulcer depth M ± es [1]: 2.1 ± 0.3
Rat (Shay test) No. of ulcers M ± es [1]: 8.4 ± 1.8
Mouse LD50 [2]: ≥ 5000 mg/Kg/os
LD50 ([2]; mouse, oral, in peanut oil): approximately 5 g./Kg

CC(=O)N[C@@H](Cc1ccccc1)C(=O)N[C@@H](Cc1ccccc1)C(=O)N[C@@H](Cc1c[nH]cn1)C(N)=O [N-acetyl-l-phenylalanyl-l-phenylalanyl-l-histidineamide] (Ac-Phe-Phe-His-NH2)
Rat (Shay test) Ulcer depth M ± es [1]: 1.1 ± 0.4
Rat (Shay test) No. of ulcers M ± es [1]: 3.1 ± 1.7
Mouse LD50 [2]: > 5000 mg/Kg/os
